Measurements published in patent US8044082B2, “N-phenylacetamide inhibitors of the enzyme SOAT-1 and pharmaceutical/cosmetic compositions comprised thereof” (Galderma Research & Development, priority 2007, dated 2011).

Row | SMILES | melting point [°C]
1 | CC(C)c1cccc(C(C)C)c1NC(=O)CN1C(=O)N(c2ccccc2)C2(CCCCC2)C1=O [compound (I.2), N-(2,6-Diisopropylphenyl)-2-(2,4-dioxo-1-phenyl-1,3-diazaspiro[4.5]dec-3-yl)acetamide] | 245
2 | Cc1cc(C(=O)N(C)C2CCCCC2)cc(C)c1NC(=O)CN1C(=O)N(c2ccccc2)C2(CCCCC2)C1=O [compound (I.3), N-(Cyclohexyl)-4-[2-(2,4-dioxo-1-phenyl-1,3-diazaspiro[4.5]dec-3-yl]-acetylamino]-3,5,N-trimethylbenzamide] | 177
3 | Cc1cc(C(=O)N(C)c2ccccc2)cc(C)c1NC(=O)CN1C(=O)N(c2ccccc2)C2(CCCCC2)C1=O [compound (I.4), 4-[2-(2,4-Dioxo-1-phenyl-1,3-diazaspiro[4.5]dec-3-y]acetylamino]-3,5,N-tri methyl-N-phenylbenzamide] | 242
4 | CC(C)c1cccc(C(C)C)c1NC(=O)CN1C(=O)N(c2ccc(Cl)cc2)C2(CCCCC2)C1=O [compound (I.6), 2-[1-(4-Chlorophenyl)-2,4-dioxo-1,3-diazaspiro[4.5]dec-3-yl]-N-(2,6-di-isopropylphenyl)acetamide] | 237
5 | COc1ccc(N2C(=O)N(CC(=O)Nc3c(C(C)C)cccc3C(C)C)C(=O)C23CCCCC3)cc1 [compound (I.8), N-(2,6-Diisopropylphenyl)-2-[1-(4-methoxyphenyl)-2,4-dioxo-1,3-diazaspiro[4.5]dec-3-yl]acetamide] | 193
6 | CC(C)c1cccc(C(C)C)c1NC(=O)CN1C(=O)N(c2ccccc2)C2(CCCCCC2)C1=O [compound (I.9), N-(2,6-Diisopropylphenyl)-2-(2,4-dioxo-1-phenyl-1,3-diazaspiro[4.6]undec-3-yl)acetamide] | 230
7 | CC(C)c1cccc(C(C)C)c1NC(=O)CN1C(=O)N(c2cccc(F)c2)C2(CCCCC2)C1=O [compound (I.11), N-(2,6-Diisopropylphenyl)-2-[1-(3-fluorophenyl)-2,4-dioxo-1,3-diazaspiro[4.5]dec-3-yl]acetamide] | 234
8 | CC(C)c1cccc(C(C)C)c1NC(=O)CN1C(=O)N(c2cccc(Cl)c2)C2(CCCCC2)C1=O [compound (I.12), 2-[1-(3-Chlorophenyl)-2,4-dioxo-1,3-diazaspiro[4.5]dec-3-yl]-N-(2,6-di-isopropylphenyl)acetamide] | 240
9 | CC(C)c1cccc(C(C)C)c1NC(=O)CN1C(=O)N(C2CCCC2)C2(CCCCC2)C1=O [compound (I.13), 2-(1-Cyclopentyl-2,4-dioxo-1,3-diazaspiro[4.5]dec-3-yl)-N-(2,6-diisopropyl-phenyl)acetamide] | 257

Results, then the molecule that gave them:

Row | melting point [°C] | SMILES
10 | 248 | CC(C)c1cccc(C(C)C)c1NC(=O)CN1C(=O)N(C2CCCCCC2)C2(CCCCC2)C1=O [compound (I.15)]
11 | 215 | Cc1cccc(N2C(=O)N(CC(=O)Nc3c(C(C)C)cccc3C(C)C)C(=O)C23CCCCC3)c1 [compound (I.16), N-(2,6-Diisopropylphenyl)-2-(2,4-dioxo-1-m-tolyl-1,3-diazaspiro[4.5]dec-3-yl)acetamide]
12 | 268 | CC(C)c1cccc(C(C)C)c1NC(=O)CN1C(=O)N(c2ccc(F)cc2)C2(CCCC2)C1=O [compound (I.17), N-(2,6-Diisopropylphenyl)-2-[1-(4-fluorophenyl)-2,4-dioxo-1,3-diazaspiro[4.4]non-3-yl]acetamide]
13 | 198 | COc1cccc(N2C(=O)N(CC(=O)Nc3c(C(C)C)cccc3C(C)C)C(=O)C23CCCCC3)c1 [compound (I.18), N-(2,6-Diisopropylphenyl)-2-[1-(3-methoxyphenyl)-2,4-dioxo-1,3-diazaspiro[4.5]dec-3-yl]acetamide]
14 | 231 | CC(C)c1cccc(C(C)C)c1NC(=O)CN1C(=O)N(c2ccccc2F)C2(CCCCC2)C1=O [compound (I.19)]
